Results published in paper PMC3146629 (2011).

Biological target: HSPA8 (Hsc70) (Bos taurus, UniProt P19120)
Test: […]-1H TROSY NMR titration
Type: binding

HSPA8 (Hsc70), sequence (P19120 1-383): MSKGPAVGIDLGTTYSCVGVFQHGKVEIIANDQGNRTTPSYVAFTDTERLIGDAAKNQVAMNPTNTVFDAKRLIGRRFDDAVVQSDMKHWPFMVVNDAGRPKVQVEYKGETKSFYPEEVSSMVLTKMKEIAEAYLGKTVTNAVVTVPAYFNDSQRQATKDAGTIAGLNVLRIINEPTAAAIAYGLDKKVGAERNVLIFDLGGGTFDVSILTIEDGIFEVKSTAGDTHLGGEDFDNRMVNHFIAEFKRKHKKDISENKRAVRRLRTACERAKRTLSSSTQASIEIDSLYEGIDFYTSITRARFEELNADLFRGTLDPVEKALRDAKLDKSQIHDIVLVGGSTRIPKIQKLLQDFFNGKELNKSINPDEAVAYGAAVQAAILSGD

Kd: < 10 µM
SMILES: CCn1c(=Cc2cccc[n+]2CC)sc(=C2Sc3ccccc3N2C)c1=O [MKT-077, 1-ethyl-2-[[3-ethyl-5-(3-methylbenzothiazolin-2-yliden)]-4-oxothiazolidin-2-ylidenemethyl] pyridinium chloride]
